Results as given in article PMC12822184, “Targeting E2F8 sensitizes gemcitabine-resistant gallbladder cancer to PARP inhibitors by disrupting RRM2-driven DNA repair” (Journal of Experimental & Clinical Cancer Research : CR, 2025).

How the values were obtained:
E2F8 DNA-binding domain [1] = molecular target: T1, E2F8 DNA-binding domain (Homo sapiens, UniProt A0AVK6, R156A/R314A); test: SPR (Biacore 8K, CM5 amine coupling, steady-state […])
T1 construct: N-terminal thioredoxin-6xHis tag removed by TEV protease; E. coli Rosetta (DE3) pLysS
T1 sequence (A0AVK6 110-350 R156A/R314A): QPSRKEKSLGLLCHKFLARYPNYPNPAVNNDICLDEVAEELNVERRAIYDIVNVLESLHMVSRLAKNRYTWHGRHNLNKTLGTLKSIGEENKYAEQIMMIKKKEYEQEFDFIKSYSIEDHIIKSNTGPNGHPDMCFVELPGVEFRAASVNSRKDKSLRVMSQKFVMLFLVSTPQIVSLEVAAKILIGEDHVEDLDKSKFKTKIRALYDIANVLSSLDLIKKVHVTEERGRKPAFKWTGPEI

E2F8 DNA-binding domain [2] = molecular target: T2, E2F8 DNA-binding domain (Homo sapiens, UniProt A0AVK6); test: as above
T2 construct: N-terminal thioredoxin-6xHis tag removed by TEV protease; E. coli Rosetta (DE3) pLysS
T2 sequence (A0AVK6 110-350): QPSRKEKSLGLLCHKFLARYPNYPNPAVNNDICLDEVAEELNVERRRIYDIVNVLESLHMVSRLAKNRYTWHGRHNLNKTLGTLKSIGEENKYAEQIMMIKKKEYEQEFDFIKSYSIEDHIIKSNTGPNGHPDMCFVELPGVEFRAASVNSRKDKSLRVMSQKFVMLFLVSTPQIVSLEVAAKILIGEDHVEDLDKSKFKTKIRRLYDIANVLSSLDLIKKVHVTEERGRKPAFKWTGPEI

SMILES: O=C(Nc1ccccc1C(=O)O)c1cccc(N2C(=O)c3ccc(C(=O)Nc4ccccc4C(=O)O)cc3C2=O)c1 [HIT-4]
- Kd (E2F8 DNA-binding domain [1]): 7.96 µM
- Kd (E2F8 DNA-binding domain [2]): 0.15 µM
